Assay [1] deals with RS4;11 cells. Briefly: Cell viability assay (CellTiter-Glo) in RS4;11 cells. The conditions noted are these: 24 hours, 10% Human Serum. The assay is classed as cell-based. The method, then: (§1) The acute lymphoblastic leukemia (ALL) human cell line RS4;11 (ATCC, Manassas VA) was used as the primary human cell line to assess the cellular activity of compound of the present Examples in vitro and their efficacy in vivo. […] The acute lymphoblastic leukemia cell line Molt-4, which is derived from immature T-lymphoid cells (T-ALL), was used as a counter screen assay.
(§2) 3000 Cells (0.1×10^6/mL) were seeded in each well of 384-well plate and were treated for 24 hours in a humidified chamber with 5% CO2. Cell viability was determined by CellTiter-Glo as described by the manufacturer's instructions (Promega Corporation, Madison, WI, USA).

Assay [2] concerns Molt-4 cells. The assay can be described thus: Cell viability counter screen (CellTiter-Glo) in Molt-4 cells. It is filed as cell-based. The conditions noted are these: 24 hours, 10% Human Serum. The method, then:
as §1, §2
A general note: Counterscreens check selectivity or assay interference.

The target of assay [3] is Bcl-2 protein (Homo sapiens (Human), UniProt P10415). The assay can be described thus: TR-FRET binding assay, Bcl-2. The settings on record: F-Bak peptide probe, GST-Bcl-2. The protocol:
(§3) Determination of the utility of compounds having Formula (I) or Formula (II) as binders to and inhibitors of anti-apoptotic Bcl-2 proteins was performed using the Time Resolved-Fluorescence Resonance Energy Transfer (TR-FRET) Assay. Tb-anti-GST antibody was purchased from Invitrogen (Catalog No. PV4216).
A Bcl-2 human encoding sequence was cloned into a pET41A vector (Novagen). The protein was expressed with E. coli. BL21(DE3)-T1R strain in OETB autoinduction medium at 30° C. for 25 hours. The cell pellets were resuspended in lysis buffer (50 mM Tris, 140 mM NaCl, 1 mM DTT, 10% Glycerol, 2 mM MgCl2, pH 7.3) and lysed with Microfluidizer. The Bcl-2 protein in clarified cell-lysate was purified with affinity chromatography (GST and Ni-NTA). The eluate was loaded onto a Superdex 75 column and further purified with a Q Sepharose column. The protein was purified on a phenyl hydrophobic interaction column and dialyzed in the storage buffer (50 mM Tris, 50 mM NaCl, 2 mM DTT, pH 7.5) and stored at −80° C.
(§4) […] of a protein (Bcl-2 or Bcl-xL)/probe/antibody mixture pre-equilibrated for one hour in assay buffer was added to each well at final concentrations listed in Table 6 below.
(§5) The samples were then mixed on a shaker for 1 minute and equilibrated for an additional 3 hours at room temperature. For each assay plate, a probe/antibody and protein/antibody/probe mixture were included as a negative and a positive control, respectively. Fluorescence was measured on the Envision (Perkin Elmer) using a 340/35 nm excitation filter and 520/525 (F-Bak) and 495/510 nm (Tb-labeled anti-GST antibody) emission filters. Inhibition constants (Ki) were determined using Wang's equation (Wang FEBS Lett. 1995, 360, 111-114). The TR-FRET assay can be performed in the presence of varying concentrations of human serum (HS) to determine apparent half maximal inhibitory concentration (IC50) after HS protein binding.
(§6) Inhibition constants were determined using Wang's equation (Wang FEBS Lett. 1995, 360:111-4).

For assay [4], the target named is Bcl-xL protein (Homo sapiens (Human), UniProt Q07817). The assay can be described thus: TR-FRET binding assay, Bcl-xL. The settings on record: F-Bak peptide probe. The protocol: as §3
A human Bcl-xL encoding sequence was cloned into a pET41A vector. The protein was expressed with E. coli. BL21(DE3)-T1R strain in OETB autoinduction medium at 30° C. for 25 hours. The cell pellets were resuspended in lysis buffer (50 mM Tris, 140 mM NaCl, 1 mM DTT, 10% Glycerol, 0.1% Triton X-100, pH 7.5) and lysed with Microfluidizer. The Bcl-xL protein in clarified cell-lysate was purified with GST affinity chromatography. The eluate was dialyzed in the storage buffer (1×PBS, 10% Glycerol, 2 mM DTT, 1 mM Sodium Azide, pH 7.4) and stored at −80° C.
as §4, §5, §6
On the technique in general: In TR-FRET formats the signal depends on donor and acceptor labels being close together.

Chain of Bcl-xL protein (Q07817 other isoform, or with tags, fused parts or gaps): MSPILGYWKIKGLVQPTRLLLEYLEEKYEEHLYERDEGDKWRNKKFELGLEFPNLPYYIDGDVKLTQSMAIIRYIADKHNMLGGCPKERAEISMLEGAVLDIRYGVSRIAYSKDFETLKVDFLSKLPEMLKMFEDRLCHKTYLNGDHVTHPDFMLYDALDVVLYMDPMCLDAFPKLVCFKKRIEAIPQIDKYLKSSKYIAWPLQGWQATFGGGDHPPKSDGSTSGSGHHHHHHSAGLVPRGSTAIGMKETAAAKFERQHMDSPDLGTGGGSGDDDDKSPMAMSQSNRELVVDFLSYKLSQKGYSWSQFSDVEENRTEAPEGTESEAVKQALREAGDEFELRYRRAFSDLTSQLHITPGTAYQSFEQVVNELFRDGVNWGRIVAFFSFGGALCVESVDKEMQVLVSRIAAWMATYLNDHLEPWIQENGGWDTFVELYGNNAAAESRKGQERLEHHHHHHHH
Chain of Bcl-2 protein (P10415 other isoform, or with tags, fused parts or gaps): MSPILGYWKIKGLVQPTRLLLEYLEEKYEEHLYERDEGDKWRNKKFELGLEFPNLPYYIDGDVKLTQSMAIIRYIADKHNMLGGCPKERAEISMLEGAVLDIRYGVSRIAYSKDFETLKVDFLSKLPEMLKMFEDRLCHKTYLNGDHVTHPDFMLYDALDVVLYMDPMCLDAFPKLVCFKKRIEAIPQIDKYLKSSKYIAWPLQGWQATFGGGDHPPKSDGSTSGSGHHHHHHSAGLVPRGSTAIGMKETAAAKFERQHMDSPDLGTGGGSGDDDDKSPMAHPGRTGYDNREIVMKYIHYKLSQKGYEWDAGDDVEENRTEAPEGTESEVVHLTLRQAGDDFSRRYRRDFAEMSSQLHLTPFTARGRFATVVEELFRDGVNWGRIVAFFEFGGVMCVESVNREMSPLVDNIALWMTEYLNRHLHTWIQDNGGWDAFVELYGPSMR

As usually defined, the EC50 is the concentration at which the effect is half-maximal. On to `CC1(C)CC(c2ccc(Cl)cc2)=C2CN3CCN(c4ccc(C(=O)NS(=O)(=O)c5ccc(NC[C@H]6COCCO6)c([N+](=O)[O-])c5)c(N5CCCOc6nc7[nH]ccc7cc65)c4)C[C@H]3COCCCO[C@@H]2C1` [Example 3, N-((4-((((S)-1,4-dioxan-2-yl)methyl)amino)-3-nitrophenyl)sulfonyl)-4-((4aS,10aR)-14-(4-chlorophenyl)-12,12-dimethyl-1,2,4a,5,8,9,10a,11,13,15-decahydro-7H,12H-benzo[f]pyrazino[2,1-c][1,8]dioxa[4]azacycloundecin-3(4H)-yl)-2-(3,4-dihydro-2H-pyrrolo[3′,2′:5,6]pyrido[2,3-b][1,4]oxazepin-1(7H)-yl)benzamide], for which the EC50 was 1.36 nM in assay [1] and 1410 nM in assay [2].

As for `C[C@@H]1CC[C@H](CNc2ccc(S(=O)(=O)NC(=O)c3ccc(N4CCN5CC6=C(c7ccc(Cl)cc7)CC(C)(C)C[C@H]6OCCCOC[C@@H]5C4)cc3N3CCCOc4nc5[nH]ccc5cc43)cc2[N+](=O)[O-])OC1` [Example 21, 4-((4aS,10aR)-14-(4-chlorophenyl)-12,12-dimethyl-1,2,4a,5,8,9,10a,11,13,15-decahydro-7H,12H-benzo[f]pyrazino[2,1-c][1,8]dioxa[4]azacycloundecin-3(4H)-yl)-2-(3,4-dihydro-2H-pyrrolo[3′,2′:5,6]pyrido[2,3-b][1,4]oxazepin-1(7H)-yl)-N-((4-((((2R,5R)-5-methyltetrahydro-2H-pyran-2-yl)methyl)amino)-3-nitrophenyl)sulfonyl)benzamide], the EC50 came to 4.89 nM in assay [1] and 3280 nM in assay [2].

The term Ki denotes the equilibrium dissociation constant of an inhibitor or competing ligand from its target. A lower Ki goes with tighter binding. `CO[C@H]1CC[C@H](CNc2ccc(S(=O)(=O)NC(=O)c3ccc(N4CCN5CC6=C(c7ccc(Cl)cc7)CC(C)(C)C[C@H]6OCCCOC[C@@H]5C4)cc3N3CCCOc4nc5[nH]ccc5cc43)cc2Cl)OC1` [Example 34, N-((3-chloro-4-((((2R,5S)-5-methoxytetrahydro-2H-pyran-2-yl)methyl)amino)phenyl)sulfonyl)-4-((4aS,10aR)-14-(4-chlorophenyl)-12,12-dimethyl-1,2,4a,5,8,9,10a,11,13,15-decahydro-7H,12H-benzo[f]pyrazino[2,1-c][1,8]dioxa[4]azacycloundecin-3(4H)-yl)-2-(3,4-dihydro-2H-pyrrolo[3′,2′:5,6]pyrido[2,3-b][1,4]oxazepin-1(7H)-yl)benzamide] had an EC50 in assay [2] of over 10000 nM. The Ki in assay [3] was determined as 0.667 nM; in assay [4], 446 nM.

Turning to `CO[C@H]1CC[C@H](COc2ccc(S(=O)(=O)NC(=O)c3ccc(N4CCN5CC6=C(c7ccc(Cl)cc7)CC(C)(C)C[C@H]6OCCCOC[C@@H]5C4)cc3N3CCCOc4nc5[nH]ccc5cc43)cc2Cl)OC1` [Example 40, N-((3-chloro-4-(((2R,5S)-5-methoxytetrahydro-2H-pyran-2-yl)methoxy)phenyl)sulfonyl)-4-((4aS,10aR)-14-(4-chlorophenyl)-12,12-dimethyl-1,2,4a,5,8,9,10a,11,13,15-decahydro-7H,12H-benzo[f]pyrazino[2,1-c][1,8]dioxa[4]azacycloundecin-3(4H)-yl)-2-(3,4-dihydro-2H-pyrrolo[3′,2′:5,6]pyrido[2,3-b][1,4]oxazepin-1(7H)-yl)benzamide], in assay [2], the EC50 was over 10000 nM. Besides, the Ki in assay [3] came out at 0.349 nM; in assay [4], 199 nM.

Regarding `CC1(C)CC(c2ccc(Cl)cc2)=C2CN3CCN(c4ccc(C(=O)NS(=O)(=O)c5ccc(OC[C@H]6CC[C@](C)(O)CC6)c([N+](=O)[O-])c5)c(N5CCCOc6nc7[nH]ccc7cc65)c4)C[C@H]3COCCCO[C@@H]2C1` [Example 44, 4-((4aS,10aR)-14-(4-chlorophenyl)-12,12-dimethyl-1,2,4a,5,8,9,10a,11,13,15-decahydro-7H,12H-benzo[f]pyrazino[2,1-c][1,8]dioxa[4]azacycloundecin-3(4H)-yl)-2-(3,4-dihydro-2H-pyrrolo[3′,2′:5,6]pyrido[2,3-b][1,4]oxazepin-1(7H)-yl)-N-((4-(((1r,4r)-4-hydroxy-4-methylcyclohexyl)methoxy)-3-nitrophenyl)sulfonyl)benzamide], the EC50 was determined as 4.39 nM in assay [1] and 2270 nM in assay [2].
